Legend:
Assay in all cases: NCI 60 cell panel SRB screen
[1] = system: CCRF-CEM; format: cell-based, human
[2] = system: K-562; format: cell-based; conditions: Homo sapiens, K562
[3] = system: MOLT-4; format: cell-based; conditions: Homo sapiens
[4] = system: RPMI-8226; format: cell-based; conditions: Homo sapiens
[5] = system: SR; format: cell-based; conditions: Homo sapiens
[6] = system: HOP-62; format: cell-based; conditions: Homo sapiens
[7] = system: HOP-92; format: cell-based; conditions: Homo sapiens
[8] = system: NCI-H226; format: cell-based; conditions: Homo sapiens
[9] = system: NCI-H322M; format: cell-based; conditions: Homo sapiens
[10] = system: HCC-2998; format: cell-based; conditions: Homo sapiens
[11] = system: HCT-116; format: cell-based; conditions: Homo sapiens
[12] = system: HCT-15; format: cell-based; conditions: Homo sapiens
[13] = system: KM12; format: cell-based; conditions: Homo sapiens
[14] = system: SF-268; format: cell-based; conditions: Homo sapiens
[15] = system: SNB-19; format: cell-based; conditions: Homo sapiens
[16] = system: SNB-75; format: cell-based; conditions: Homo sapiens
[17] = system: U251; format: cell-based; conditions: Homo sapiens, U-251
[18] = system: LOX IMVI; format: cell-based; conditions: Homo sapiens
[19] = system: UACC-257; format: cell-based; conditions: Homo sapiens
[20] = system: UACC-62; format: cell-based
[21] = system: OVCAR-5; format: cell-based; conditions: Homo sapiens
[22] = system: SK-OV-3; format: cell-based; conditions: Homo sapiens
[23] = system: ACHN; format: cell-based; conditions: Homo sapiens
[24] = system: CAKI-1; format: cell-based, human
[25] = system: SN12C; format: cell-based; conditions: Homo sapiens
[26] = system: TK-10; format: cell-based, human
[27] = system: DU-145; format: cell-based; conditions: Homo sapiens
[28] = system: MCF7; format: cell-based; conditions: Homo sapiens
[29] = system: MDA-MB 231/ATCC; format: cell-based; conditions: Homo sapiens
[30] = system: HS 578T; format: cell-based; conditions: Homo sapiens
[31] = system: BT-549; format: cell-based; conditions: Homo sapiens
[32] = system: T-47D; format: cell-based; conditions: Homo sapiens, T47D
[33] = 5 log dose, 48 h, read-out: LC50 (the source's name)
[34] = single dose 10 μM, read-out: percent cell growth promotion
[35] = read-out: percent cell growth promotion

## Cc1nnc(Nc2ccc(NC(=O)Nc3ccc(Cl)cc3)cc2)c2ccccc12 [Compound 6e, 1–(4-Chlorophenyl)-3–(4-(4-methylphthalazin-1-ylamino)phenyl)urea]
[1]; 5 log dose
  TGI: 5.99 µM
[1]; Homo sapiens, 5 log dose
  GI50: 2.38 µM
[1]; Homo sapiens, 5 log dose, 48 h, read-out: LC50 (the source's name)
  CC50: > 100 µM
[1]; Homo sapiens, single dose 10 μM, read-out: percent cell growth promotion
  activity at 10 µM: 11%
[2]; K-562, 5 log dose
  GI50: 2.2 µM
  IC (TGI): 4.67 µM
[2]; K-562, 5 log dose, 48 h, read-out: LC50 (the source's name)
  CC50: 9.92 µM
[2]; K-562, single dose 10 μM, read-out: percent cell growth promotion
  activity at 10 µM: -16.7%
[3]; MOLT-4, 5 log dose
  GI50: 2.36 µM
  IC (TGI): 6 µM
[3]; MOLT-4, 5 log dose, 48 h, read-out: LC50 (the source's name)
  CC50: > 100 µM
[3]; MOLT-4, single dose 10 μM, read-out: percent cell growth promotion
  activity at 10 µM: 9.76%
[4]; RPMI-8226, 5 log dose
  GI50: 2.6 µM
  IC (TGI): 6.48 µM
[4]; RPMI-8226, 5 log dose, 48 h, read-out: LC50 (the source's name)
  CC50: > 100 µM
[4]; RPMI-8226, single dose 10 μM, read-out: percent cell growth promotion
  activity at 10 µM: -11.9%
[5]; 5 log dose
  GI50: 2.56 µM
  IC (TGI): 9.55 µM
[5]; [33]
  CC50: > 100 µM
[5]; [34]
  activity at 10 µM: -3.51%
[6]; HOP-62, 5 log dose
  GI50: 1.81 µM
  IC (TGI): 3.7 µM
[6]; HOP-62, 5 log dose, 48 h, read-out: LC50 (the source's name)
  CC50: 7.56 µM
[6]; HOP-62, single dose 10 μM, read-out: percent cell growth promotion
  activity at 10 µM: 44.2%
[7]; HOP-92, 5 log dose
  GI50: 2.56 µM
  IC (TGI): 6.6 µM
[7]; HOP-92, 5 log dose, 48 h, read-out: LC50 (the source's name)
  CC50: 42 µM
[7]; HOP-92, single dose 10 μM, read-out: percent cell growth promotion
  activity at 10 µM: 4.62%
[8]; NCI-H226, 5 log dose
  GI50: 3.61 µM
  IC (TGI): 15.9 µM
[8]; NCI-H226, 5 log dose, 48 h, read-out: LC50 (the source's name)
  CC50: 64.6 µM
[8]; NCI-H226, single dose 10 μM, read-out: percent cell growth promotion
  activity at 10 µM: 71.9%
[9]; 5 log dose
  GI50: 3.31 µM
  IC (TGI): 1.25 µM
[9]; [33]
  CC50: 69.5 µM
[9]; [34]
  activity at 10 µM: 47.8%
[10]; HCC-2998, 5 log dose
  GI50: 2.84 µM
  IC (TGI): 8.09 µM
[10]; HCC-2998, 5 log dose, 48 h
  LC50 (50% lethal concentration): 27.8 µM
[10]; HCC-2998, single dose 10 μM, read-out: percent cell growth promotion
  activity at 10 µM: 40.5%
[11]; HCT-116, 5 log dose
  GI50: 1.86 µM
  IC (TGI): 3.59 µM
[11]; HCT-116, 5 log dose, 48 h
  LC50 (lethal concentration 50%): 6.93 µM
[11]; HCT-116, single dose 10 μM, read-out: percent cell growth promotion
  activity at 10 µM: 7.67%
[12]; HCT-15, 5 log dose
  GI50: 1.91 µM
  IC (TGI): 4.53 µM
[12]; HCT-15, 5 log dose, 48 h, read-out: LC50 (the source's name)
  CC50: 13.9 µM
[12]; HCT-15, single dose 10 μM, read-out: percent cell growth promotion
  activity at 10 µM: 6.39%
[13]; KM12, 5 log dose
  GI50: 1.99 µM
  IC (TGI): 4.53 µM
[13]; KM12, 5 log dose, 48 h, read-out: LC50 (the source's name)
  CC50: 11.1 µM
[13]; KM12, single dose 10 μM, read-out: percent cell growth promotion
  activity at 10 µM: 14.1%
[14]; SF-268, 5 log dose
  GI50: 2.57 µM
  IC (TGI): 7.17 µM
[14]; SF-268, 5 log dose, 48 h, read-out: LC50 (the source's name)
  CC50: 47 µM
[14]; SF-268, single dose 10 μM, read-out: percent cell growth promotion
  activity at 10 µM: 48.7%
[15]; SNB-19, 5 log dose
  GI50: 2.77 µM
  IC (TGI): 8.72 µM
[15]; SNB-19, 5 log dose, 48 h, read-out: LC50 (the source's name)
  CC50: 56.6 µM
[15]; SNB-19, single dose 10 μM, read-out: percent cell growth promotion
  activity at 10 µM: 16.2%
[16]; SNB-75, 5 log dose
  GI50: 1.91 µM
  IC (TGI): 5.49 µM
[16]; SNB-75, 5 log dose, 48 h
  LC50 (concentration killing 50% of cells): 21.3 µM
[16]; SNB-75, single dose 10 μM, read-out: percent cell growth promotion
  activity at 10 µM: 68.1%
[17]; U251, 5 log dose
  GI50: 1.98 µM
  IC (TGI): 3.75 µM
[17]; U251, 5 log dose, 48 h, read-out: LC50 (the source's name)
  CC50: 7.07 µM
[17]; U251, single dose 10 μM, read-out: percent cell growth promotion
  activity at 10 µM: 5.4%
[18]
  GI50: 1.75 µM
[18]; [33]
  CC50: 6.11 µM
[18]; read-out: TGI
  IC (TGI): 3.27 µM
[18]; [35]
  activity at 10 µM: -27.3%
[19]; UACC-257
  GI50: 2.39 µM
[19]; UACC-257, read-out: TGI
  IC (TGI): 5.3 µM
[19]; UACC-257, read-out: percent cell growth promotion
  activity at 10 µM: 73.8%
[20]; Homo sapiens, UACC-62
  GI50: 1.75 µM
[20]; Homo sapiens, UACC-62, read-out: percent cell growth promotion
  activity at 10 µM: -34.4%
[20]; Homo sapiens, UACC-62, 5 log dose, 48 h, read-out: LC50 (the source's name)
  CC50: 7.35 µM
[20]; UACC-62, 5 log dose
  TGI: 3.59 µM
[21]; OVCAR-5, 5 log dose
  GI50: 2.1 µM
  IC (TGI): 4.99 µM
[21]; OVCAR-5, 5 log dose, 48 h, read-out: LC50 (the source's name)
  CC50: 18.7 µM
[21]; OVCAR-5, single dose 10 μM, read-out: percent cell growth promotion
  activity at 10 µM: 72.8%
[22]; SK-OV-3, 5 log dose
  GI50: 2.61 µM
  IC (TGI): 6.59 µM
[22]; SK-OV-3, 5 log dose, 48 h, read-out: LC50 (the source's name)
  CC50: 30.7 µM
[22]; SK-OV-3, single dose 10 μM, read-out: percent cell growth promotion
  activity at 10 µM: 66.4%
[23]; 5 log dose
  GI50: 1.84 µM
  IC (TGI): 3.69 µM
[23]; [33]
  CC50: 7.41 µM
[23]; [34]
  activity at 10 µM: 58.8%
[24]; CAKI-1, 5 log dose
  TGI: 12.8 µM
[24]; Homo sapiens, CAKI-1, 5 log dose
  GI50: 3.49 µM
[24]; Homo sapiens, CAKI-1, 5 log dose, 48 h, read-out: LC50 (the source's name)
  CC50: 43.6 µM
[24]; Homo sapiens, CAKI-1, single dose 10 μM, read-out: percent cell growth promotion
  activity at 10 µM: 33.9%
[25]; 5 log dose
  GI50: 2.86 µM
  IC (TGI): 9.41 µM
[25]; [33]
  CC50: 60.1 µM
[25]; [34]
  activity at 10 µM: 60.1%
[26]; Homo sapiens, TK-10, 5 log dose
  GI50: 3.19 µM
[26]; Homo sapiens, TK-10, 5 log dose, 48 h, read-out: LC50 (the source's name)
  CC50: 33.7 µM
[26]; Homo sapiens, TK-10, single dose 10 μM, read-out: percent cell growth promotion
  activity at 10 µM: 51.7%
[26]; TK-10, 5 log dose
  TGI: 9.42 µM
[27]; DU-145, 5 log dose
  GI50: 4.77 µM
  IC (TGI): 19.5 µM
[27]; DU-145, 5 log dose, 48 h, read-out: LC50 (the source's name)
  CC50: 66.9 µM
[27]; DU-145, single dose 10 μM, read-out: percent cell growth promotion
  activity at 10 µM: 57.8%
[28]; MCF7
  GI50: 2.21 µM
[28]; MCF7, read-out: TGI
  IC (TGI): 10.9 µM
[28]; MCF7, read-out: percent cell growth promotion
  activity at 10 µM: 24.9%
[28]; MCF7, 5 log dose, 48 h, read-out: LC50 (the source's name)
  CC50: 68.7 µM
[29]; MDA-MB-231
  GI50: 2.38 µM
[29]; MDA-MB-231, read-out: TGI
  IC (TGI): 5.94 µM
[29]; MDA-MB-231, read-out: percent cell growth promotion
  activity at 10 µM: 23.1%
[29]; MDA-MB-231, MDA-MDA 231/ATCC, 5 log dose, 48 h, read-out: LC50 (the source's name)
  CC50: 33.9 µM
[30]; Hs-578T
  GI50: 2.52 µM
[30]; Hs-578T, read-out: TGI
  IC (TGI): 6.4 µM
[30]; Hs-578T, read-out: percent cell growth promotion
  activity at 10 µM: 3.43%
[30]; HS 578T, 5 log dose, 48 h, read-out: LC50 (the source's name)
  CC50: > 100 µM
[31]; BT-549
  GI50: 2.21 µM
[31]; BT-549, read-out: TGI
  IC (TGI): 5.55 µM
[31]; BT-549, read-out: percent cell growth promotion
  activity at 10 µM: 11.4%
[31]; BT-549, 5 log dose, 48 h, read-out: LC50 (the source's name)
  CC50: 66 µM
[32]
  GI50: 2.06 µM
[32]; read-out: TGI
  IC (TGI): 5.08 µM
[32]; [35]
  activity at 10 µM: 8.43%
[32]; T-47D, 5 log dose, 48 h, read-out: LC50 (the source's name)
  CC50: 56.4 µM

From PMC6691788, “Design and synthesis of phthalazine-based compounds as potent anticancer agents with potential antiangiogenic activity via VEGFR-2 inhibition” (Journal of Enzyme Inhibition and Medicinal Chemistry, 2019)
